Among the data in ChEMBL document CHEMBL1127884, “Inhibition of stromelysin-1 (MMP-3) by peptidyl phosphinic acids” (Bioorg Med Chem Lett, 1994) are inhibition and Ki values, retold here.

In test [1] the target is T1, Interstitial collagenase (Homo sapiens) (UniProt P03956).
T1 sequence (whole entry): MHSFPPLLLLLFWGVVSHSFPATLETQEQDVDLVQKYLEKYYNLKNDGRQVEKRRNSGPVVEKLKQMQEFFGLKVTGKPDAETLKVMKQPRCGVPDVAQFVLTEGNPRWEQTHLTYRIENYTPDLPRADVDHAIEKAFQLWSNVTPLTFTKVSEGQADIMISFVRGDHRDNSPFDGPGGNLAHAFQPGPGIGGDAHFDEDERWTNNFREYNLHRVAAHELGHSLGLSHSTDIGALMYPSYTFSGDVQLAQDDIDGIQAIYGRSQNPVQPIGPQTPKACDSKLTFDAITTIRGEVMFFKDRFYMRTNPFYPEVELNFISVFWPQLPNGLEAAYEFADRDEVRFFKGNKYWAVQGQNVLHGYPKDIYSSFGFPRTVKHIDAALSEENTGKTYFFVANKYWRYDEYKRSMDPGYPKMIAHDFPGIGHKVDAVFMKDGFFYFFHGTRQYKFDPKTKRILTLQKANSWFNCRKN
Briefly: In vitro inhibition of human fibroblast collagenase at a 10 uM.

The target of test [2] is T2, Stromelysin-1 (Homo sapiens, UniProt P08254). Briefly: In vitro inhibition of human recombinant stromelysin-1.
Target sequence in this assay (P08254 whole entry): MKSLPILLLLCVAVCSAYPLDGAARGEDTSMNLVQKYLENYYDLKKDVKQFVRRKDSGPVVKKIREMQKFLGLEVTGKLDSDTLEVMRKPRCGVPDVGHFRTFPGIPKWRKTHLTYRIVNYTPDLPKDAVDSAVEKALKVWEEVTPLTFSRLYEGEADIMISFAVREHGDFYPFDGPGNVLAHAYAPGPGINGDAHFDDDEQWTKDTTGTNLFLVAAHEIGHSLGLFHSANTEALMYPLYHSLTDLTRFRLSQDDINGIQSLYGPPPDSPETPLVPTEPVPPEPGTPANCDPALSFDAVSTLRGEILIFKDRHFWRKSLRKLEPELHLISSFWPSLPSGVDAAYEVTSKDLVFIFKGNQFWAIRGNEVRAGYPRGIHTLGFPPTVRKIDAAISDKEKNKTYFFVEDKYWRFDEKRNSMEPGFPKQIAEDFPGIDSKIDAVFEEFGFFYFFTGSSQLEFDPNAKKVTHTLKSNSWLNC
For another test, the target named is T3, Interstitial collagenase (Homo sapiens, UniProt P03956).
T3 sequence (P03956 whole entry): T1 sequence (whole entry)
In words: In vitro inhibition of human fibroblast collagenase.

Test [3] deals with T2, Stromelysin-1. Briefly: In vitro inhibition of human recombinant stromelysin-1 at a concentration of 5 uM.
Target sequence in this assay (P08254 100-477 limits assumed): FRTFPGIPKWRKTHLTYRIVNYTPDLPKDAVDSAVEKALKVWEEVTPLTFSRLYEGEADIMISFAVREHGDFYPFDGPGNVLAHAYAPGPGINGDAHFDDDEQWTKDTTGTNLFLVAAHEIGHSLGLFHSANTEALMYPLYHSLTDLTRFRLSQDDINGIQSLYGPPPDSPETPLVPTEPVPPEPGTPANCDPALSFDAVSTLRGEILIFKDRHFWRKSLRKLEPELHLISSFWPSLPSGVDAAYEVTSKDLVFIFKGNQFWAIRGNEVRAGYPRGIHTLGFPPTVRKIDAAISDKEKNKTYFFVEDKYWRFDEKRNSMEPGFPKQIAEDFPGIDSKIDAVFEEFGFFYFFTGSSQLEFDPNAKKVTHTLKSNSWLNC

Each structure is given as a SMILES string.

As for `CC(C)C[C@H](NC(=O)C(CCc1ccccc1)CP(=O)(O)CNC(=O)[C@H](CCCCN)NC(=O)OCc1ccccc1)C(=O)Nc1ccccc1` (stereo partly specified), the inhibition in test [1] stood at 18%. Further, at Stromelysin-1 [2], the Ki worked out at 4600 nM.

As to `CC(C)C[C@H](NC(=O)C(CCc1ccccc1)CP(=O)(O)[C@H](C)NC(=O)[C@H](C)NC(=O)C1CCCN1C(=O)c1ccccc1)C(=O)Nc1ccccc1` (stereo partly specified), the Ki on Interstitial collagenase came out at 5100 nM; on Stromelysin-1 [2], 20 nM.

For the molecule `CC(=O)N1CCCC1C(=O)N[C@@H](C)P(=O)(O)CC(CCc1ccccc1)C(=O)N[C@@H](CC(C)C)C(=O)Nc1ccccc1` (stereo partly specified), the inhibition in test [1] stood at 0%; on Stromelysin-1 [3], 57%.

As for `CC(C)C[C@H](NC(=O)C(CCc1ccccc1)CP(=O)(O)CNC(=O)[C@H](Cc1c[nH]cn1)NC(=O)OCc1ccccc1)C(=O)Nc1ccccc1` (stereo partly specified), the inhibition in test [1] was determined as 9%. Moreover, the Ki on Stromelysin-1 [2] turned out to be 210 nM.

The molecule `CC(C)C[C@H](NC(=O)C(CCc1ccccc1)CP(=O)(O)CNC(=O)[C@H](C)NC(=O)C1CCCN1C(=O)c1ccccc1)C(=O)Nc1ccccc1` (stereo partly specified) gave an inhibition in test [1] of 39%. Further, the Ki at Stromelysin-1 [2] was determined as 24 nM.

`CC(=O)N[C@@H](C)C(=O)N[C@@H](C)P(=O)(O)CC(CCc1ccccc1)C(=O)N[C@@H](CC(C)C)C(=O)Nc1ccccc1` (stereo partly specified) gave an inhibition in test [1] of 0%. Further, the inhibition constant Ki on Stromelysin-1 [2] was found to be 340 nM.

With `CC(=O)N1CCCC1C(=O)N[C@@H](C)C(=O)N[C@@H](C)P(=O)(O)CC(CCc1ccccc1)C(=O)N[C@@H](CC(C)C)C(=O)Nc1ccccc1` (stereo partly specified), the inhibition constant (Ki) was 2900 nM on Interstitial collagenase and 6.1 nM at Stromelysin-1 [2].

As to `CC(C)C[C@H](NC(=O)C(CCc1ccccc1)CP(=O)(O)CNC(=O)OCc1ccccc1)C(=O)Nc1ccccc1` (stereo partly specified), the inhibition constant (Ki) on Interstitial collagenase came to 15900 nM; at Stromelysin-1 [2], 280 nM.

For the molecule `CC(C)C[C@H](NC(=O)C(CCc1ccccc1)CP(=O)(O)CNC(=O)[C@H](CCC(=O)O)NC(=O)OCc1ccccc1)C(=O)Nc1ccccc1` (stereo partly specified), in test [1], the inhibition was determined as 12%. For the same molecule, on Stromelysin-1 [2], the inhibition constant Ki came out at 370 nM.

The molecule `CC(C)C[C@H](NC(=O)C(CCc1ccccc1)CP(=O)(O)CNC(=O)[C@H](Cc1ccccc1)NC(=O)OCc1ccccc1)C(=O)Nc1ccccc1` (stereo partly specified) came in with an inhibition in test [1] of 4%. At Stromelysin-1 [2], the inhibitory constant (Ki) was determined as 710 nM.

In test [1], `CC(C)C[C@H](NC(=O)C(CCc1ccccc1)CP(=O)(O)CNC(=O)Cc1ccccc1)C(=O)Nc1ccccc1` (stereo partly specified) displayed an inhibition of 0%. Also, the Ki at Stromelysin-1 [2] was 940 nM.

`CC(C)C[C@H](NC(=O)C(CCc1ccccc1)CP(=O)(O)CNC(=O)[C@H](C)NC(=O)OCc1ccccc1)C(=O)Nc1ccccc1` (stereo partly specified) displayed an inhibition in test [1] of 0%. Further, the Ki on Stromelysin-1 [2] came to 280 nM.

On to `CC(C)CC(NC(=O)C(CCc1ccccc1)CP(=O)(O)CNC(=O)CN1C(=O)c2ccccc2C1=O)C(=O)Nc1ccccc1` (stereo unspecified), for which the inhibition in test [1] is 14%. On Stromelysin-1 [2], the Ki is 410 nM.

`CCCC[C@H](NC(=O)OCc1ccccc1)C(=O)NCP(=O)(O)CC(CCc1ccccc1)C(=O)N[C@@H](CC(C)C)C(=O)Nc1ccccc1` (stereo partly specified) yielded an inhibition in test [1] of 0%. For the same molecule, the inhibition constant Ki on Stromelysin-1 [2] was 1300 nM.

In turn, `CC(C)C[C@H](NC(=O)C(CCc1ccccc1)CP(=O)(O)CNCc1ccccc1)C(=O)Nc1ccccc1` (stereo partly specified) came in with an inhibition in test [1] of 0%. Also, at Stromelysin-1 [2], the Ki worked out at 1900 nM.

Take `CC(C)C[C@H](NC(=O)C(CCc1ccccc1)CP(=O)(O)CNC(=O)[C@H](CC(N)=O)NC(=O)OCc1ccccc1)C(=O)Nc1ccccc1` (stereo partly specified): in test [1], the inhibition worked out at 14%. Moreover, the inhibition constant Ki on Stromelysin-1 [2] was determined as 600 nM.

Turning to `CC(C)C[C@H](NC(=O)C(CCc1ccccc1)CP(=O)(O)[C@H](C)NC(=O)OCc1ccccc1)C(=O)Nc1ccccc1` (stereo partly specified), the values for the Ki at Interstitial collagenase and on Stromelysin-1 [2] were 7500 nM and 330 nM, respectively.

`CC(=O)N1CCCC1C(=O)N[C@@H](C)C(=O)NCP(=O)(O)CC(CCc1ccccc1)C(=O)N[C@@H](CC(C)C)C(=O)Nc1ccccc1` (stereo partly specified) yielded an inhibition in test [1] of 60%. Further, at Stromelysin-1 [2], the inhibition constant Ki worked out at 15 nM.

As to `CC(C)C[C@H](NC(=O)C(CCc1ccccc1)CP(=O)(O)CNC(=O)CNC(=O)OCc1ccccc1)C(=O)Nc1ccccc1` (stereo partly specified), the inhibition in test [1] stood at 4%. The Ki on Stromelysin-1 [2] was determined as 1400 nM.

`CC(=O)N[C@@H](C)C(=O)N[C@@H](C)C(=O)N[C@@H](C)P(=O)(O)CC(CCc1ccccc1)C(=O)N[C@@H](CC(C)C)C(=O)Nc1ccccc1` (stereo partly specified): the inhibition in test [1] worked out at 32%. Moreover, the inhibition constant (Ki) at Stromelysin-1 [2] was 42 nM.

The molecule `CC(C)C[C@H](NC(=O)C(CCc1ccccc1)CP(=O)(O)CNC(=O)[C@H](Cc1ccc(O)cc1)NC(=O)OCc1ccccc1)C(=O)Nc1ccccc1` (stereo partly specified) returned an inhibition in test [1] of 0%. Also, on Stromelysin-1 [2], the Ki amounted to 560 nM.

In turn, `CC(C)C[C@H](NC(=O)C(CCc1ccccc1)CP(=O)(O)[C@H](C)NCc1ccccc1)C(=O)Nc1ccccc1` (stereo partly specified) returned an inhibition in test [1] of 7%. Besides, the inhibition constant (Ki) at Stromelysin-1 [2] was 1900 nM.

For `CC(C)C[C@H](NC(=O)C(CCc1ccccc1)CP(=O)(O)[C@H](C)NC(=O)CN1C(=O)c2ccccc2C1=O)C(=O)Nc1ccccc1` (stereo partly specified), in test [1], the inhibition turned out to be 0%. Moreover, the inhibition constant Ki on Stromelysin-1 [2] stood at 2400 nM.
